Assay [1] concerns the target GSK3β (H350L) (Homo sapiens (Human), UniProt P49841). The note with it: read-out: GSK3β Ki.
Description: The assay was initiated with the addition of ATP, following 15 minutes pre-incubation of enzyme and inhibitor at room temperature in the reaction mixture. The reaction was stopped after 30 minutes at room temperature by the addition of 50 μL of 80 mM EDTA.
Assay [2] addresses CDK2/Cyclin E1 full length (Homo sapiens (Human), UniProt P24941). The assay is described as follows: CDK2/Cyclin E1 full length mobility shift assay. The class given is biochemical.

Sequence of GSK3β (H350L) (P49841 whole entry, stated change not applied): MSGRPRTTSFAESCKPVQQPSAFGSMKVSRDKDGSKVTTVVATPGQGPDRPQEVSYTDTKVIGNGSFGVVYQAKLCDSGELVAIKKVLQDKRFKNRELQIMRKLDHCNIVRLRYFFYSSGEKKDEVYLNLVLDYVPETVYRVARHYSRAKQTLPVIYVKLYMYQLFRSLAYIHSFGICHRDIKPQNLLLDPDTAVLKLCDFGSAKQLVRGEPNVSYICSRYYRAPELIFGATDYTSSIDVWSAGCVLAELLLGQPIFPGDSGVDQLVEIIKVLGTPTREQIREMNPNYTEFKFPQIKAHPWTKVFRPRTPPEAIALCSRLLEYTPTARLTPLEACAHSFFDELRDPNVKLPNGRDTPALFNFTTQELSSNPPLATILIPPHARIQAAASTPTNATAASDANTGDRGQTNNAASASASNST

A word on the Ki: it is a dissociation constant, usually derived from enzyme kinetics or from competition with a known ligand. In the case of `CC[C@H](C)NC(=O)O[C@@H]1CC[C@H](c2cc(NC(=O)c3ccc(C)nc3)n[nH]2)C1` [Example 324, (1R,3S)-3-(3-{[(6-methylpyridin-3-yl)carbonyl]amino}-1H-pyrazol-5-yl)cyclopentyl (2S)-butan-2-ylcarbamate], the figures for the Ki in assay [1] and in assay [2] were 94.3 nM and 0.54 nM, respectively.

For the compound `CC[C@H](C)NC(=O)O[C@@H]1CC[C@H](c2cc(NC(=O)Cc3cnccn3)n[nH]2)C1` [Example 325, (1R,3S)-3-{3-[(pyrazin-2-ylacetyl)amino]-1H-pyrazol-5-yl}cyclopentyl (2S)-butan-2-ylcarbamate], the values for the Ki in assay [1] and in assay [2] were 54 nM and 0.81 nM, respectively.

As to `CC[C@H](C)NC(=O)O[C@@H]1CC[C@H](c2cc(NC(=O)Cc3ccnn3C)n[nH]2)C1` [Example 326, (1R,3S)-3-(3-{[(1-methyl-1H-pyrazol-5-yl)acetyl]amino}-1H-pyrazol-5-yl)cyclopentyl (2S)-butan-2-ylcarbamate], the results for the Ki in assay [1] and in assay [2] were 72.4 nM and 1.17 nM, respectively.

Turning to `CC[C@H](C)NC(=O)O[C@@H]1CC[C@H](c2cc(NC(=O)Cc3cnn(C)c3)n[nH]2)C1` [Example 327, (1R,3S)-3-(3-{[(1-methyl-1H-pyrazol-4-yl)acetyl]amino}-1H-pyrazol-5-yl)cyclopentyl (2S)-butan-2-ylcarbamate], the Ki in assay [1] came to 57.8 nM; in assay [2] it was 0.44 nM.

For `CC[C@H](C)NC(=O)O[C@@H]1CC[C@H](c2cc(NC(=O)Cc3cncn3C)n[nH]2)C1` [Example 329, (1R,3S)-3-(3-{[(1-methyl-1H-imidazol-5-yl)acetyl]amino}-1H-pyrazol-5-yl)cyclopentyl (2S)-butan-2-ylcarbamate], the results for the Ki in assay [1] and in assay [2] were 107 nM and 1.02 nM, respectively.

As to `CC[C@H](C)NC(=O)O[C@@H]1CC[C@H](c2cc(NC(=O)Cc3cnn(C)n3)n[nH]2)C1` [Example 330, (1R,3S)-3-(3-{[(2-methyl-2H-1,2,3-triazol-4-yl)acetyl]amino}-1H-pyrazol-5-yl)cyclopentyl (2S)-butan-2-ylcarbamate], the Ki in assay [1] was 86 nM; in assay [2], 0.55 nM.

In the case of `CC[C@H](C)NC(=O)O[C@@H]1CC[C@H](c2cc(NC(=O)Cc3cc(C)on3)n[nH]2)C1` [Example 332, (1R,3S)-3-(3-{[(5-methyl-1,2-oxazol-3-yl)acetyl]amino}-1H-pyrazol-5-yl)cyclopentyl (2S)-butan-2-ylcarbamate], the Ki in assay [1] was determined as 61.3 nM; in assay [2] it was 1.05 nM.

Turning to `CC[C@H](C)NC(=O)O[C@@H]1CC[C@H](c2cc(NC(=O)Cc3ncc(C)o3)n[nH]2)C1` [Example 333, (1R,3S)-3-(3-{[(5-methyl-1,3-oxazol-2-yl)acetyl]amino}-1H-pyrazol-5-yl)cyclopentyl (2S)-butan-2-ylcarbamate], the Ki in assay [1] was 63.2 nM; in assay [2], 0.41 nM.

As for `CC[C@H](C)NC(=O)O[C@@H]1CC[C@H](c2cc(NC(=O)Cc3ccnc(C)c3)n[nH]2)C1` [Example 335, (1R,3S)-3-(3-{[(2-methylpyridin-4-yl)acetyl]amino}-1H-pyrazol-5-yl)cyclopentyl (2S)-butan-2-ylcarbamate], the Ki was found to be 23.9 nM in assay [1] and 0.41 nM in assay [2].

With `CC[C@H](C)NC(=O)O[C@@H]1CC[C@H](c2cc(NC(=O)Cc3cncc(C)n3)n[nH]2)C1` [Example 336, (1R,3S)-3-(3-{[(6-methylpyrazin-2-yl)acetyl]amino}-1H-pyrazol-5-yl)cyclopentyl (2S)-butan-2-ylcarbamate], the Ki in assay [1] stood at 53.5 nM; in assay [2], 0.39 nM.

Regarding `CC[C@H](C)NC(=O)O[C@@H]1CC[C@H](c2cc(NC(=O)Cc3cnn(C)c3C)n[nH]2)C1` [Example 337, (1R,3S)-3-(3-{[(1,5-dimethyl-1H-pyrazol-4-yl)acetyl]amino}-1H-pyrazol-5-yl)cyclopentyl (2S)-butan-2-ylcarbamate], the Ki was 94.9 nM in assay [1] and 0.58 nM in assay [2].

With `CC[C@H](C)NC(=O)O[C@@H]1CC[C@H](c2cc(NC(=O)Cc3cc(C)nn3C)n[nH]2)C1` [Example 338, (1R,3S)-3-(3-{[(1,3-dimethyl-1H-pyrazol-5-yl)acetyl]amino}-1H-pyrazol-5-yl)cyclopentyl (2S)-butan-2-ylcarbamate], the figures for the Ki in assay [1] and in assay [2] were 94.4 nM and 1.58 nM, respectively.

On to `CC[C@H](C)NC(=O)O[C@@H]1CC[C@H](c2cc(NC(=O)Cc3scnc3C)n[nH]2)C1` [Example 342, (1R,3S)-3-(3-{[(4-methyl-1,3-thiazol-5-yl)acetyl]amino}-1H-pyrazol-5-yl)cyclopentyl (2S)-butan-2-ylcarbamate], for which the Ki in assay [1] worked out at 40 nM; in assay [2], 0.74 nM.

On to `CC[C@H](C)NC(=O)O[C@@H]1CC[C@H](c2cc(NC(=O)Cc3nc(C)cs3)n[nH]2)C1` [Example 343, (1R,3S)-3-(3-{[(4-methyl-1,3-thiazol-2-yl)acetyl]amino}-1H-pyrazol-5-yl)cyclopentyl (2S)-butan-2-ylcarbamate], for which the values for the Ki in assay [1] and in assay [2] were 26.1 nM and 0.77 nM, respectively.

Turning to `CC[C@H](C)NC(=O)O[C@@H]1CC[C@H](c2cc(NC(=O)Cc3ccc(OC)nc3)n[nH]2)C1` [Example 346, (1R,3S)-3-(3-{[(6-methoxypyridin-3-yl)acetyl]amino}-1H-pyrazol-5-yl)cyclopentyl (2S)-butan-2-ylcarbamate], the Ki in assay [1] worked out at 10.7 nM; in assay [2] it was 0.26 nM.

On to `CC[C@H](C)NC(=O)O[C@@H]1CC[C@H](c2cc(NC(=O)Cc3cncc(OC)n3)n[nH]2)C1` [Example 348, (1R,3S)-3-(3-{[(6-methoxypyrazin-2-yl)acetyl]amino}-1H-pyrazol-5-yl)cyclopentyl (2S)-butan-2-ylcarbamate], for which the Ki is 54.1 nM in assay [1] and 0.59 nM in assay [2].

Take `CC[C@H](C)NC(=O)O[C@@H]1CC[C@H](c2cc(NC(=O)Cc3cnn(C(C)C)c3)n[nH]2)C1` [Example 349, (1R,3S)-3-[3-({[1-(propan-2-yl)-1H-pyrazol-4-yl]acetyl}amino)-1H-pyrazol-5-yl]cyclopentyl (2S)-butan-2-ylcarbamate]: the values for the Ki in assay [1] and in assay [2] were 57.3 nM and 0.4 nM, respectively.

Turning to `CC[C@H](C)NC(=O)O[C@@H]1CC[C@H](c2cc(NC(=O)Cc3sc(C)nc3C)n[nH]2)C1` [Example 352, (1R,3S)-3-(3-{[(2,4-dimethyl-1,3-thiazol-5-yl)acetyl]amino}-1H-pyrazol-5-yl)cyclopentyl (2S)-butan-2-ylcarbamate], the figures for the Ki in assay [1] and in assay [2] were 58.4 nM and 0.82 nM, respectively.

`CC[C@H](C)NC(=O)O[C@@H]1CC[C@H](c2cc(NC(=O)Cc3ncc(OC)s3)n[nH]2)C1` [Example 353, (1R,3S)-3-(3-{[(5-methoxy-1,3-thiazol-2-yl)acetyl]amino}-1H-pyrazol-5-yl)cyclopentyl (2S)-butan-2-ylcarbamate]: the values for the Ki in assay [1] and in assay [2] were 29.5 nM and 0.5 nM, respectively.

For the compound `CC[C@H](C)NC(=O)O[C@@H]1CC[C@H](c2cc(NC(=O)Cc3cn4ccsc4n3)n[nH]2)C1` [Example 355, (1R,3S)-3-{3-[(imidazo[2,1-b][1,3]thiazol-6-ylacetyl)amino]-1H-pyrazol-5-yl}cyclopentyl (2S)-butan-2-ylcarbamate], the Ki in assay [1] amounted to 18.1 nM; in assay [2] it was 1.13 nM.

For the compound `CC[C@H](C)NC(=O)O[C@@H]1CC[C@H](c2cc(NC(=O)c3ccnn3CCN(C)C)[nH]n2)C1` [Example 356, (1R,3S)-3-{5-[({1-[2-(dimethylamino)ethyl]-1H-pyrazol-5-yl}carbonyl)amino]-1H-pyrazol-3-yl}cyclopentyl (2S)-butan-2-ylcarbamate], the Ki in assay [1] was 148 nM; in assay [2], 0.67 nM.

With `CC[C@H](C)NC(=O)O[C@@H]1CC[C@H](c2cc(NC(=O)Cc3cn4nc(C)sc4n3)n[nH]2)C1` [Example 359, (1R,3S)-3-(3-{[(2-methylimidazo[2,1-b][1,3,4]thiadiazol-6-yl)acetyl]amino}-1H-pyrazol-5-yl)cyclopentyl (2S)-butan-2-ylcarbamate], the Ki amounted to 28.5 nM in assay [1] and 0.39 nM in assay [2].

`CC[C@H](C)NC(=O)O[C@@H]1CC[C@H](c2cc(NC(=O)Cc3cccc4c3CN(C)C4=O)n[nH]2)C1` [Example 361, (1R,3S)-3-(3-{[(2-methyl-1-oxo-2,3-dihydro-1H-isoindol-4-yl)acetyl]amino}-1H-pyrazol-5-yl)cyclopentyl (2S)-butan-2-ylcarbamate]: the results for the Ki in assay [1] and in assay [2] were 25.6 nM and 0.94 nM, respectively.

`CC[C@H](C)NC(=O)O[C@@H]1CC[C@H](c2cc(NC(=O)Cc3cnc(C(F)(F)F)cn3)n[nH]2)C1` [Example 363, (1R,3S)-3-[3-({[5-(trifluoromethyl)pyrazin-2-yl]acetyl}amino)-1H-pyrazol-5-yl]cyclopentyl (2S)-butan-2-ylcarbamate]: the Ki in assay [1] worked out at 52 nM; in assay [2] it was 0.35 nM.

Take `CC[C@H](C)NC(=O)O[C@@H]1CC[C@H](c2cc(NC(=O)Cc3ccc(C(=O)N(C)C)cc3)n[nH]2)C1` [Example 364, (1R,3S)-3-[3-({[4-(dimethylcarbamoyl)-phenyl]acetyl}amino)-1H-pyrazol-5-yl]cyclopentyl (2S)-butan-2-ylcarbamate]: the figures for the Ki in assay [1] and in assay [2] were 59.9 nM and 0.82 nM, respectively.

Regarding `CCc1nn2cc(CC(=O)Nc3cc([C@H]4CC[C@@H](OC(=O)N[C@@H](C)CC)C4)[nH]n3)nc2s1` [Example 367, (1R,3S)-3-(3-{[(2-ethylimidazo[2,1-b][1,3,4]thiadiazol-6-yl)acetyl]amino}-1H-pyrazol-5-yl)cyclopentyl (2S)-butan-2-ylcarbamate], the Ki in assay [1] came out at 23.5 nM; in assay [2], 0.27 nM.

For the compound `CC[C@H](C)NC(=O)O[C@@H]1CC[C@H](c2cc(NC(=O)Cc3cc(C)ccc3S(C)(=O)=O)n[nH]2)C1` [Example 371, (1R,3S)-3-[3-({[5-methyl-2-(methylsulfonyl)phenyl]acetyl}amino)-1H-pyrazol-5-yl]cyclopentyl (2S)-butan-2-ylcarbamate], the Ki in assay [1] was 161 nM; in assay [2] it was 0.32 nM.

Source of the values: patent US11014911B2, “CDK2 inhibitors” (Pfizer Inc., priority 2019, dated 2021).
